Data from PubChem BioAssay AID2060890 (Molecular Pharmacology Branch, DTP, NCI, 2025).

Tested on: LG0703-F948-PDC complex spheroid viability
Test: Anticancer human tumor LG0703-F948-PDC patient-derived lung adenocarcinoma cell line growth inhibition [RAS]
Conditions: for IC50: curve of first compound; for viability, T/C: stronger effect = lower value
Description: RAS pathway inhibitors in Combinations in Complex Spheroids
A high-throughput screen of multi-cell type tumor spheroids was designed to identify active combinations of RAS pathway inhibitors and targeted small molecules. Complex spheroids include a stromal component modeled by human endothelial cells (HUVEC) and fibroblasts modeled by human mesenchymal stem cells (MSCs). The concentration ranges selected for each drug and investigational agent were based upon clinically achievable concentrations if the clinical Cmax of the agent was known.
Compounds. The drugs and investigational agents: abemaciclib (NSC768073), cobimetinib (NSC768068), divarasib (GDC6063, NSC841802), docetaxel (NSC628503), GDC-1971 (RLY-1971, NSC841576), gemcitabine (NSC613327), inavolisib (NSC800729), ipatasertib (NSC767898), KB-0742 (NSC834161), MRTX-1133 (NSC836407), osimertinib (NSC779217), RMC-4630 (NSC839698), RMC-6236 (NSC851965), RMC-6291 (NSC852671), Ro-3306 (NSC812927), sapanisertib (NSC764658), SN-38 (NSC673596), staurosporine (NSC755774), SY5609 (NSC837396), and tovorafenib (DAY101, NSC766906), were obtained from the National Cancer Institute (NCI) Developmental Therapeutics Program Chemical Repository. The FDA-approved anticancer drug set is available from the NCI Developmental Therapeutics Program. […] The stock solutions were prepared in dimethyl sulfoxide (DMSO, Sigma-Aldrich, St. Louis, MO, cat. D2650) at 800-fold the tested concentration and stored at -70 degrees C prior to their use. All drugs and investigational agents were tested over a range starting from a high concentration at or near the clinical Cmax and decreasing in half-log increments. If the clinical Cmax for an agent had not been determined, the highest concentration tested was 10 microM.
Cell Culture. All cells were maintained in an incubator at 37 degrees C and 5% CO2 with 95% humidity. The PDC lines were cultured according to standard operating procedures established by the NCI PDMR. All PDCs were thawed and cultured in Matrigel-coated flasks prepared with a working solution of 1X Ham's F-12 nutrient mix, without supplementation (Invitrogen, Waltham, MA, cat. 11765054), 100 U/mL penicillin-streptomycin (Invitrogen, cat. 15140122), and 2.5% Matrigel (Corning Inc., Corning, NY, cat. 354248) for the first three passages. The 362531-283-R-J2-PDC and 782815-120-R-J1-PDC lines were cultured in 6C/Colon 1B media, which includes advanced DMEM/F-12 (Thermo Fisher Scientific, cat. 12634028), 10 mM HEPES (Thermo Fisher Scientific, cat. 15630080), 1X GlutaMAX supplement (Thermo Fisher Scientific, cat. 35050061), 0.1 mg/mL primocin (InvivoGen, San Diego, CA, cat. ant-pm-2), 10% defined fetal bovine serum, heat inactivated (HyClone Laboratories Inc., Logan, UT, cat. SH30070.03HI), 50% L-WRN conditioned media (ATCC, cat. CRL-3276), 1.25 mM N-Acetyl-L-cysteine (Sigma-Aldrich, cat. A9165), 10 mM nicotinamide (Sigma-Aldrich, cat. N0636), 1X B-27 supplement (Thermo Fisher Scientific, cat. 17504044), 1X N-2 supplement (Thermo Fisher Scientific, cat. 17502048), 50 ng/mL human EGF (Thermo Fisher Scientific, cat. PHG0311), and 10 microM Y-27632 dihydrochloride (Tocris Bioscience, cat. 1254). The K12877-001-R-J1-PDC line was cultured in 6I media, which includes all 6C/Colon 1B media plus 10 ng/mL human FGF-10 (PeproTech, cat. 100-26), 1 ng/mL human FGF-2 (PeproTech, cat. 100-18B), 1 µM prostaglandin E2 (Tocris Bioscience, cat. 2296), […] hydrocortisone (Sigma-Aldrich, cat. H4001), and […] bovine insulin (Sigma-Aldrich, cat. I6634). The K86415-001-R-J1-PDC line was cultured in 6D media, which includes all 6C/Colon 1B media components minus the L-WRN conditioned media. The 485176-168-R4-J1-PDC was cultured in PANC media, which includes all 6C/Colon 1B media plus 100 ng/mL human FGF-10 (PeproTech, cat. 100-26), 500 nM SB-431542 (Selleckchem, cat. S1067), and 10 nM gastrin (Tocris Bioscience, cat. 3006). […]
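Note: spheroids exposed to agents for 7 days.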
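Throughout, for viability, T/C: 100% = DMSO vehicle wells.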

CC(C)n1nc(-c2ccc3oc(N)nc3c2)c2c(N)ncnc21 + C=CC(=O)N1CCN(c2nc(OCC3CCCN3C)nc3c(F)c(-c4nc(N)cc(C)c4C(F)(F)F)c(Cl)cc23)C(C)C1
IC50 (second compound 0.00316 µM): 2.63 nM
IC50 (second compound 0.01 µM): 4.04 nM
IC50 (second compound 0.0316 µM): 3.57 nM
IC50 (second compound 0.1 µM): 3.98 nM
IC50 (second compound 0.316 µM): 4.22 nM
IC50 (second compound 1 µM): 4.58 nM
viability, T/C (second compound 0.00316 µM, first compound 0.000316 µM): 90.6%
viability, T/C (second compound 0.00316 µM, first compound 0.001 µM): 65.3%
viability, T/C (second compound 0.00316 µM, first compound 0.00316 µM): 49.1%
viability, T/C (second compound 0.00316 µM, first compound 0.01 µM): 29.7%
viability, T/C (second compound 0.00316 µM, first compound 0.0316 µM): 12.6%
viability, T/C (second compound 0.00316 µM, first compound 0.1 µM): 7.5%
viability, T/C (second compound 0.01 µM, first compound 0.000316 µM): 92.8%
viability, T/C (second compound 0.01 µM, first compound 0.001 µM): 79.9%
viability, T/C (second compound 0.01 µM, first compound 0.00316 µM): 55.6%
viability, T/C (second compound 0.01 µM, first compound 0.01 µM): 29.7%
viability, T/C (second compound 0.01 µM, first compound 0.0316 µM): 12.3%
viability, T/C (second compound 0.01 µM, first compound 0.1 µM): 7.9%
viability, T/C (second compound 0.0316 µM, first compound 0.000316 µM): 94.8%
viability, T/C (second compound 0.0316 µM, first compound 0.001 µM): 76%
viability, T/C (second compound 0.0316 µM, first compound 0.00316 µM): 52.3%
viability, T/C (second compound 0.0316 µM, first compound 0.01 µM): 30.9%
viability, T/C (second compound 0.0316 µM, first compound 0.0316 µM): 12.8%
viability, T/C (second compound 0.0316 µM, first compound 0.1 µM): 6.67%
viability, T/C (second compound 0.1 µM, first compound 0.000316 µM): 106%
viability, T/C (second compound 0.1 µM, first compound 0.001 µM): 78.3%
viability, T/C (second compound 0.1 µM, first compound 0.00316 µM): 57.6%
viability, T/C (second compound 0.1 µM, first compound 0.01 µM): 31.4%
viability, T/C (second compound 0.1 µM, first compound 0.0316 µM): 14.3%
viability, T/C (second compound 0.1 µM, first compound 0.1 µM): 8.14%
viability, T/C (second compound 0.316 µM, first compound 0.000316 µM): 103%
viability, T/C (second compound 0.316 µM, first compound 0.001 µM): 79.3%
viability, T/C (second compound 0.316 µM, first compound 0.00316 µM): 59%
viability, T/C (second compound 0.316 µM, first compound 0.01 µM): 31.5%
viability, T/C (second compound 0.316 µM, first compound 0.0316 µM): 12.9%
viability, T/C (second compound 0.316 µM, first compound 0.1 µM): 7.55%
viability, T/C (second compound 1 µM, first compound 0.000316 µM): 114%
viability, T/C (second compound 1 µM, first compound 0.001 µM): 84.8%
viability, T/C (second compound 1 µM, first compound 0.00316 µM): 59.2%
viability, T/C (second compound 1 µM, first compound 0.01 µM): 34.3%
viability, T/C (second compound 1 µM, first compound 0.0316 µM): 13.9%
viability, T/C (second compound 1 µM, first compound 0.1 µM): 6.36%
